From US20070191350A1, “Combinations comprising alpha-2-delta ligands” (Pifizer Inc., priority 2004, published 2007) come the findings set out here.

The nature of this series: Plasma concentration (Cmax) of gabapentin in the rat.

SMILES strings stand for the structures.

In general, Cmax refers to the highest concentration seen after dosing. In turn, `NCC1(CC(=O)O)CCCCC1` [gabapentin, 1-(aminomethyl)-cyclohexylacetic acid] registered a maximum concentration (Cmax) of 520 to 10500 ng/mL.
